Laboratory results as given in publication PMC8879095, “UHPLC-MS/MS Analysis of Antibiotics Transfer and Concentrations in Porcine Oral Fluid after Intramuscular Application” (Pharmaceuticals, 2022).
Where two headings read alike, the source gives them in different places.

Experiments:
[1] = set-up: method as in earlier work; details: cited from earlier work
[2] = Antibiotic concentrations in porcine oral fluid after intramuscular application (UHPLC-MS/MS); assay type: in vivo; details: pigs, i.m.; for concentration in oral fluid at withdrawal period: at the end of the withdrawal period for tissues of each drug (Table 3); for distribution to oral fluid: conclusion in words
[3] = cited from earlier work
[4] = set-up: method as in PMID 14651045, PMID 14651045; details: cited from earlier work
[5] = male, (Landrace × Yorkshire) × Duroc crossbred (DanBred sows), pig, intramuscular, oral fluid, time 1 d (24 h after first injection), treatment period, read-out: Avarage Concentrations in oral fluid
[6] = male, (Landrace × Yorkshire) × Duroc crossbred (DanBred sows), pig, intramuscular, oral fluid, treatment period, read-out: Avarage Concentrations in oral fluid
[7] = male, (Landrace × Yorkshire) × Duroc crossbred (DanBred sows), pig, intramuscular, oral fluid, time 4 d, posttreatment, read-out: Avarage Concentrations in oral fluid
[8] = male, (Landrace × Yorkshire) × Duroc crossbred (DanBred sows), pig, intramuscular, oral fluid, posttreatment, read-out: Avarage Concentrations in oral fluid
[9] = oral fluid, time 30 d, posttreatment

| SMILES | concentration at 1 d [2, 5] [ng/mL] | concentration at 2 d [2, 6] [ng/mL] | concentration at 3 d [2, 6] [ng/mL] | concentration at 4 d [2, 7] [ng/mL] | concentration at 5 d [2, 8] [ng/mL] | concentration at 6 d [2, 8] [ng/mL] | concentration at 7 d [2, 8] [ng/mL] | concentration at 8 d [2, 8] [ng/mL] | concentration at 9 d [2, 8] [ng/mL] | concentration at 10 d [2, 8] [ng/mL] | concentration at 11 d [2, 8] [ng/mL] | concentration at 12 d [2, 8] [ng/mL] | concentration at 13 d [2, 8] [ng/mL] | concentration at 14 d [2, 8] [ng/mL] | concentration at 15 d [2, 8] [ng/mL] | concentration at 16 d [2, 8] [ng/mL] | concentration at 17 d [2, 8] [ng/mL] | concentration at 18 d [2, 8] [ng/mL] | concentration at 19 d [2, 8] [ng/mL] | concentration at 20 d [2, 8] [ng/mL] | also measured |
| --- | --- | --- | --- | --- | --- | --- | --- | --- | --- | --- | --- | --- | --- | --- | --- | --- | --- | --- | --- | --- | --- |
| CCC[C@@H]1C[C@@H](C(=O)N[C@@H]([C@H]2O[C@H](SC)[C@H](O)[C@@H](O)[C@H]2O)[C@@H](C)O)N(C)C1 [LIN, lincomycin] | 10500 | 2960 ± 446 | 4250 ± 559 | 1550 | 1670 ± 199 | 1790 ± 203 | 1480 ± 186 | 437 ± 101 | 457 ± 96 | 420 ± 83 | 194 ± 55 | 257 ± 76 | 131 ± 41 | 125 ± 33 | 277 ± 61 | 337 ± 69 | 128 ± 28 | 302 ± 51 | 279 ± 44 | 376 ± 52 | apparent volume of distribution [1]: > 1 L/kg; concentration at 1 d ([2]; male, (Landrace × Yorkshire) × Duroc crossbred (DanBred sows), pig, intramuscular, oral fluid, first day of medication (abstract), read-out: concentration in oral fluid on the first day of medication): 10500 ng/g; concentration at 21 d [2, 8]: 252 ± 39 ng/mL; concentration at 22 d [2, 8]: 142 ± 24 ng/mL; concentration at 23 d [2, 8]: 298 ± 33 ng/mL; concentration at 24 d [2, 8]: 326 ± 47 ng/mL; concentration at 25 d [2, 8]: 180 ± 44 ng/mL; concentration at 26 d [2, 8]: 160 ± 36 ng/mL; concentration at 27 d [2, 8]: 205 ± 43 ng/mL; concentration at 28 d ([2]; male, (Landrace × Yorkshire) × Duroc crossbred (DanBred sows), pig, intramuscular, oral fluid, time 28 d, posttreatment, read-out: Avarage Concentrations in oral fluid): 103 ± 26 ng/mL; concentration at 29 d ([2]; male, (Landrace × Yorkshire) × Duroc crossbred (DanBred sows), pig, intramuscular, oral fluid, time 29 d, posttreatment, read-out: Avarage Concentrations in oral fluid): 85.6 ± 16 ng/mL; concentration at 30 d ([2]; male, (Landrace × Yorkshire) × Duroc crossbred (DanBred sows), pig, intramuscular, oral fluid, time 30 d, posttreatment, read-out: Avarage Concentrations in oral fluid): 58.1 ng/mL; concentration in oral fluid at withdrawal period ([2]; oral fluid): 437 ng/mL; Avarage Concentrations in oral fluid ([2]; oral fluid, time 1 d (24 h after first injection), treatment period): 10,500 ± 1889 µg/L; Avarage Concentrations in oral fluid ([2]; oral fluid, time 4 d, posttreatment): 1550 ± 211 µg/L; Avarage Concentrations in oral fluid [2, 9]: 58.1 ± 12 µg/L; distribution to oral fluid [2]: high distribution; pKa [3]: about 7.6 |
| CC[C@H]1OC(=O)C[C@@H](O)[C@H](C)[C@@H](O[C@@H]2O[C@H](C)[C@@H](O[C@H]3C[C@@](C)(O)[C@@H](O)[C@H](C)O3)[C@H](N(C)C)[C@H]2O)[C@@H](CC=O)C[C@@H](C)C(=O)/C=C/C(C)=C/[C@@H]1CO[C@@H]1O[C@H](C)[C@@H](O)[C@@H](OC)[C@H]1OC [TYL, tylosin] | 396 ± 68 | 958 ± 166 | 832 ± 142 | 654 ± 111 | 538 ± 96 | 475 ± 89 | 175 ± 54 | 118 ± 41 | 158 ± 62 | 49.3 ± 13 | 54.4 ± 16 | 140 ± 36 | 32.3 ± 11 | 30.6 ± 8.4 | 19.2 ± 5.2 | 52.8 ± 33 | 31.9 ± 10 | 13.9 ± 3.6 | 16.1 ± 4.6 | 25.4 ± 7.7 | binding degree to plasma proteins [4]: < 50%; concentration at 1 d ([2]; male, (Landrace × Yorkshire) × Duroc crossbred (DanBred sows), pig, intramuscular, 5 mg/kg, oral fluid, time 1 d (24 h after first injection), treatment period, read-out: Avarage Concentrations in oral fluid): 396 ng/mL; concentration at 21 d [2, 8]: 9.2 ± 2.1 ng/mL; concentration at 22 d [2, 8]: 5.5 ± 1.1 ng/mL; concentration at 23 d [2, 8]: 5.4 ± 0.8 ng/mL; concentration at 24 d [2, 8]: 6.6 ± 0.9 ng/mL; concentration at 25 d [2, 8]: 5 ± 1.3 ng/mL; concentration at 26 d [2, 8]: 3 ± 0.5 ng/mL; concentration at 27 d [2, 8]: 6.8 ± 1.7 ng/mL; concentration in oral fluid at withdrawal period ([2]; oral fluid): 6.6 ng/mL; day of peak concentration in oral fluid ([2]; oral fluid, day of drug administration): second day; time for which the analyte was present / quantified in oral fluid ([2]; oral fluid, sampling for 30 days): 27 days; Avarage Concentrations in oral fluid ([2]; oral fluid, time 28 d, posttreatment): <LOQ; Avarage Concentrations in oral fluid ([2]; oral fluid, time 29 d, posttreatment): <LOQ; Avarage Concentrations in oral fluid [2, 9]: <LOQ; distribution to oral fluid [2]: high distribution; pKa [3]: 7.1 |
